This is an account of results in ChEMBL document CHEMBL4052684, “A novel intestinal-restricted FXR agonist” (Bioorg Med Chem Lett, 2017).

Data set [1] concerns the target T1, Bile acid receptor (Homo sapiens) (UniProt Q96RI1).
T1 sequence (whole entry): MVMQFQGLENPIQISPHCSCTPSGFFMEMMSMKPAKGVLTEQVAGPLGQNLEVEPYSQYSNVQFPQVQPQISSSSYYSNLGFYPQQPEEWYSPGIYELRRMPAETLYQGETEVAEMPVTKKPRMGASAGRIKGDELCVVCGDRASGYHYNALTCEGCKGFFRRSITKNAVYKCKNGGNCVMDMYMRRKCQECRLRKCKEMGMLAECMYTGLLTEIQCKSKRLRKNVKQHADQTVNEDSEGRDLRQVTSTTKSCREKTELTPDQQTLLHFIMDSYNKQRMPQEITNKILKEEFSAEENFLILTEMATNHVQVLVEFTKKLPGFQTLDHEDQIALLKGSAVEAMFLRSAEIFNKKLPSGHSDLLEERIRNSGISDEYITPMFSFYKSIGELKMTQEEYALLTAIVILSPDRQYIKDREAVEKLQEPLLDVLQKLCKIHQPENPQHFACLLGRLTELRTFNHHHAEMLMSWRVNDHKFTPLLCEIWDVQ
Description: Agonist activity at FXR in human Caco2 cells. It counts as cell-based.

Data set [2] addresses T1, Bile acid receptor (Homo sapiens). Description: Agonist activity at FXR in human Hepg2 cells. It counts as cell-based.
Data set [3] deals with T2, Bile acid receptor (Rattus norvegicus) (UniProt Q62735).
T2 sequence (whole entry): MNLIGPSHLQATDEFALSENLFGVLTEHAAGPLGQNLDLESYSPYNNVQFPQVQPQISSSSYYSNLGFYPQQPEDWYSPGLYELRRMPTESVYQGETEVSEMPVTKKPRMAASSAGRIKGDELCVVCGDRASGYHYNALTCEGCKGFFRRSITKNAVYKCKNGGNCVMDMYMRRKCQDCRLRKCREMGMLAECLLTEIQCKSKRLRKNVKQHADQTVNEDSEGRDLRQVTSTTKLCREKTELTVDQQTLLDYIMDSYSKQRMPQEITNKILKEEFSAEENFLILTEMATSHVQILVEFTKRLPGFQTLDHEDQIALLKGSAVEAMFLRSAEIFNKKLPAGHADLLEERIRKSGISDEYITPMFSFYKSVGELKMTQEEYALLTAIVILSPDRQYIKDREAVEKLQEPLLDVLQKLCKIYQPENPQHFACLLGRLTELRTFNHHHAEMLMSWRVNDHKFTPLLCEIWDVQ
Description: Agonist activity at FXR in rat primary hepatocytes assessed as increase in BSEP mRNA expression at 50 uM. It counts as cell-based.

The target of data set [4] is T2, Bile acid receptor (Rattus norvegicus). Description: Agonist activity at FXR in rat primary hepatocytes assessed as increase in SHP mRNA expression at 50 uM. It counts as cell-based.
The target is the same in data set [5]. Description: Agonist activity at FXR in rat primary hepatocytes assessed as reduction in CYP7A1 mRNA expression at 50 uM. It counts as cell-based.
Data set [6] has the same target. As to the kind of experiment: Agonist activity at FXR in rat primary hepatocytes. It is filed as cell-based.
Another data set deals with Caco-2. As to the kind of experiment: Cytotoxicity against human Caco2 cells at 100 uM incubated for 24 hrs by MTT assay. It is filed as cell-based. Particulars: caco-2, 24 h.
Data set [7] can be described thus: Drug uptake in human Caco2 cells at 20 and 50 uM by LC-MS/MS method. Particulars: Caco-2. It counts as ADME, cell-based.
A short description of data set [8]: Drug uptake in human Caco2 cells at 20 and 50 uM by LC-MS/MS method after 3 hrs. It is filed as ADME, cell-based. To be noted: caco-2, 3 h.
Data set [9] is described as follows: Apparent permeability from apical side to basolateral side in human Caco2 cells at 20 uM by LC-MS/MS method. It counts as ADME, cell-based. To be noted: Caco-2.
Data set [10] can be described thus: Apparent permeability from apical side to basolateral side in human Caco2 cells at 50 uM by LC-MS/MS method. It counts as ADME, cell-based. Particulars: Caco-2. (In general: Passage across Caco-2 layers is used to estimate intestinal permeability.)
A short description of data set [11]: Apparent permeability from basolateral to apical side in human Caco2 cells at 20 uM by LC-MS/MS method. It is filed as ADME, cell-based. Particulars: Caco-2.
The nature of data set [12]: Apparent permeability from basolateral to apical side in human Caco2 cells at 50 uM by LC-MS/MS method. It counts as ADME, cell-based. Particulars: Caco-2.
Data set [13] in a line: Efflux ratio in human Caco2 cells at 20 uM by LC-MS/MS method. It counts as ADME, cell-based. Particulars: Caco-2.
The nature of data set [14]: Efflux ratio in human Caco2 cells at 50 uM by LC-MS/MS method. It is filed as ADME, cell-based. Particulars: Caco-2.
Another data set has as its system Ileum. As to the kind of experiment: Drug accumulation in C57BL/6 mouse ileum at 100 mg/kg, ig for 5 days by LC-MS/MS method. It counts as ADME, organism-based. To be noted: in vivo, po, 120 h.
For data set [15], the system named is Mus musculus. Description: Increase in FXR mRNA expression in C57BL/6 mouse ileum at 100 mg/kg, ig for 5 days by PCR method. It is filed as functional, organism-based.
Data set [16] relates to Mus musculus. As to the kind of experiment: Effect on FXR mRNA expression in C57BL/6 mouse duodenum at 100 mg/kg, ig for 5 days by PCR method. It is filed as ADME, organism-based. Particulars: in vivo, po, 120 h.
The subject of data set [17] is Mus musculus. Description: Effect on FXR mRNA expression in C57BL/6 mouse jejunum at 100 mg/kg, ig for 5 days by PCR method. It is filed as ADME, organism-based. To be noted: in vivo, po, 120 h.
For data set [18], the system named is Mus musculus. As to the kind of experiment: Effect on FXR mRNA expression in C57BL/6 mouse liver at 100 mg/kg, ig for 5 days by PCR method. It counts as ADME, organism-based. Particulars: in vivo, po, 120 h.
In data set [19] the test system is Mus musculus. Description: Effect on FXR mRNA expression in C57BL/6 mouse kidney at 100 mg/kg, ig for 5 days by PCR method. It is filed as ADME, organism-based. To be noted: in vivo, po, 120 h.
A short description of data set [20]: Solubility in DMSO/mineral oil medium. It counts as physicochemical.
For another data set, the system named is Intestine. Description: Drug accumulation in C57BL/6 mouse intestine assessed as drug adherence to intestinal wall at 100 mg/kg, ig for 5 days by LC-MS/MS method. It is filed as ADME, organism-based. Particulars: in vivo, po, 120 h.
Data set [21] has as its system Mus musculus. As to the kind of experiment: Induction of FXR activation in C57BL/6 mouse ileum assessed as increase in FXR-mediated Shp mRNA expression at 100 mg/kg, ig for 5 days by PCR method. It is filed as functional, organism-based.
For data set [22], the system named is Mus musculus. Description: Effect on FXR activation in C57BL/6 mouse liver assessed as increase in FXR-mediated Shp mRNA expression at 100 mg/kg, ig for 5 days by PCR method. It is filed as organism-based. To be noted: in vivo, po, 120 h.
Data set [23] has as its system Mus musculus. Description: Effect on FXR activation in C57BL/6 mouse kidney assessed as increase in FXR-mediated Shp mRNA expression at 100 mg/kg, ig for 5 days by PCR method. It is filed as organism-based. To be noted: in vivo, po, 120 h.
Data set [24] has as its system Mus musculus. Description: Effect on FXR activation in C57BL/6 mouse non ileum part of intestine assessed as increase in FXR-mediated Shp mRNA expression at 100 mg/kg, ig for 5 days by PCR method. It is filed as organism-based. Particulars: in vivo, po, 120 h.
Data set [25] relates to Mus musculus. Description: Induction of FXR activation in C57BL/6 mouse ileum assessed as increase in FXR-mediated Bsep mRNA expression at 100 mg/kg, ig for 5 days by PCR method. It is filed as functional, organism-based.
Data set [26] concerns Mus musculus. As to the kind of experiment: Induction of FXR activation in C57BL/6 mouse ileum assessed as reduction in FXR-mediated Cyp7A1 mRNA expression at 100 mg/kg, ig for 5 days by PCR method. It counts as functional, organism-based.
The target of a further data set is T3, Bile acid receptor (Homo sapiens, UniProt Q96RI1).
T3 sequence (Q96RI1 whole entry): T1 sequence (whole entry)
Description: Binding affinity to FXR (unknown origin).

For data set [27], the target named is T1, Bile acid receptor (Homo sapiens). As to the kind of experiment: Binding affinity to FXR (unknown origin) relative to fexaramine.
Data set [28] can be described thus: Drug uptake in human Caco2 cells at 20 and 50 uM by LC-MS/MS method relative to initial level. To be noted: caco-2, TDE = time-dependent effect. It counts as ADME, cell-based.
Another data set deals with Jejunum. As to the kind of experiment: Drug accumulation in C57BL/6 mouse jejunum at 100 mg/kg, ig for 5 days by LC-MS/MS method. It is filed as ADME, organism-based. To be noted: in vivo, po, 120 h.
A further data set concerns Liver. Description: Drug accumulation in C57BL/6 mouse liver at 100 mg/kg, ig for 5 days by LC-MS/MS method. It counts as ADME, organism-based. To be noted: in vivo, po, 120 h.
A further data set concerns Serum. Description: Drug accumulation in C57BL/6 mouse serum at 100 mg/kg, ig for 5 days by LC-MS/MS method. It is filed as ADME, organism-based. To be noted: in vivo, po, 120 h.

Calls of active or inactive are those of the source. The calls are words filed in the database; no cut-off is given here.

As to `COC(=O)/C=C/c1cccc(N(Cc2ccc(-c3ccc(N(C)C)cc3)cc2)C(=O)c2ccc3cc(N(C)C)ccc3c2)c1`, the result in [1] and in [2] was inactive. Further, the outcome in [3], in data set [4] and in data set [5] was Active.
Take `COC(=O)/C=C/c1cccc(N(CC2CCCCC2)C(=O)c2ccc3cc(N(C)C)ccc3c2)c1`: the outcome in data set [1], in [2] and in data set [6] was inactive.
One may read the Papp A→B as how fast a substance crosses the layer from the apical side. By Papp B→A is commonly meant the apparent permeability from the basolateral to the apical side of a cell layer. The efflux ratio is a quotient of directional permeabilities that is used to spot active efflux. Broadly, the Kd is the free concentration of one partner at which half of the binding sites on the other are occupied at equilibrium, for simple one-to-one binding. A high value points to a looser complex. Regarding `CNc1ccc2cc(C(=O)N(Cc3ccc(-c4ccc(N(C)C)cc4)cc3)c3cccc(/C=C/C(=O)OC)c3)ccc2c1`, the result in data set [1] and in data set [2] was inactive. Further, the outcome (in data set [3]; in data set [4]; in data set [5]; in the data set with Mus musculus [15]; in the data set on Mus musculus [21]; in the data set on Mus musculus [25]) was Active. In addition, in the data set with Mus musculus [26], the result was Active. The Activity result with Caco-2, in the data set on Mus musculus [16], in the data set with Mus musculus [17], with Mus musculus [18], with Mus musculus [19] and with Mus musculus [22] was “Non-Toxic” in each case. Besides, the Activity entry in the data set with Mus musculus [23] and in the data set on Mus musculus [24] was “Non-Toxic” throughout. In addition, the Drug uptake entry (in data set [7]; in [8]; in the data set with Ileum; with Intestine) was “Active” throughout. Besides, the Papp A→B at 20 µM in data set [9] stood at 18.7 ×10⁻⁶ cm/s. In data set [10], the Papp A→B at 50 µM worked out at 97.6 ×10⁻⁶ cm/s. Also, in data set [11], the basolateral-to-apical permeability (Papp B→A) at 20 µM came to 6.62 ×10⁻⁶ cm/s. Besides, the Papp B→A at 50 µM in data set [12] amounted to 75 ×10⁻⁶ cm/s. Further, the efflux ratio at 20 µM in data set [13] was determined as 0.35. Further, the efflux ratio at 50 µM in data set [14] is 0.77. In addition, the solubility result in [20] is listed as “Insoluble”. Further, the Kd on Bile acid receptor came to 48.7 µM. In addition, in [27], the Ratio is 2000.
In the case of `COC(=O)/C=C/c1cccc(N(Cc2ccc(-c3ccc(N(C)C)cc3)cc2)C(=O)C2CCCCC2)c1` [FEXARAMINE], the Drug uptake entry in data set [7] is reported as “Active”; in data set [28], “Tde”; in the data set with Ileum it was “Active”; in the data set with Jejunum, “Active”; with Liver, “Active”; in the data set on Serum, “Active”. Also, in [9], the apparent permeability from apical to basolateral (Papp A→B) at 20 µM stood at 27.7 ×10⁻⁶ cm/s. The Papp A→B at 50 µM in [10] came out at 762 ×10⁻⁶ cm/s. In addition, the basolateral-to-apical permeability (Papp B→A) at 20 µM in [11] stood at 24 ×10⁻⁶ cm/s. The apparent permeability from basolateral to apical (Papp B→A) at 50 µM in [12] was 873 ×10⁻⁶ cm/s. Besides, the efflux ratio at 20 µM in [13] came to 0.87. In addition, the efflux ratio at 50 µM in data set [14] worked out at 1.14. In addition, the result in the data set with Mus musculus [25] and in the data set with Mus musculus [26] was Active.
Consider `CNc1ccc2cc(C(=O)N(CC3CCCCC3)c3cccc(/C=C/C(=O)OC)c3)ccc2c1`, for which the result in [1], in [2] and in data set [6] was inactive.
